Assay [1] deals with T1, Human Recombinant ROCK II Enzyme (Homo sapiens, UniProt O75116).
T1 construct: purchased Upstate USA, Inc., Lake Placid, N.Y. 14-451
As to the kind of experiment: High throughput human recombinant ROCK II enzyme inhibition assay (γ-33P-ATP, Long S6 substrate peptide, filter mat). It counts as biochemical. To be noted: mean ± SEM; for Hill Coefficient (nH): Hill coefficient of the inhibition plots; for IC50: recombinant human ROCK II (aa 11-552), 100 μM ATP, 30 min at 30° C., read-out: Inhibition Constant (IC50). As for the experimental part: The enzyme assays are performed using a Biomek 2000 Robotic Workstation (Beckman Instruments, Palo Alto, Calif.) in a 96-well format using γ-^33P-ATP (Perkin-Elmer Life Sciences, Boston, Mass.). Stock γ-^33P-ATP (3000 Ci/mmol) is diluted to 1 μCi/μl with the MgCl2/ATP cocktail solution. The concentrations of MgCl2/ATP used are 15 mM and 100 μM, respectively. […] The unutilized [γ-^33P]-ATP and other residual reagents are thereby eliminated from the filter mat but the radioactive phosphorylated peptide product is retained on the filter mat for quantification. The automated washing of the filter mat thereby enhances the signal-to-noise ratio of the assay thus rendering it into a sensitive assay. The filter mats bearing the captured radioactive phosphorylated product are then dried in a microwave oven for 15 sec, placed in special sample cellophane bag (Wallac Inc., Turku, Finland) designed for these filter mats and covered with 20 ml of Betaplate scintillation fluid (Perkin-Elmer Inc., Boston, Mass.). The bags are then sealed using a heat sealer device (Wallac Inc., Turku, Finland) and a roller used to evenly spread the scintillation fluid over the whole of the filter mat.
In a further embodiment of the present invention, the dried filter mat can be covered with a solid scintillant (MELTILEX®; Wallac Inc., Turku, Finland) that is melted directly onto the filter mat using a MELTILEX® heat sealer (Wallac Inc., Turku, Finland), a device designed for this purpose. The coated filter mat is then placed in a sample cellophane bag (Wallac Inc., Turku, Finland) designed for these filter mats that is then sealed and the radioactivity determined as described above. The solid scintillant assists in avoiding the spread of radioactivity from sample to sample on the dried filter mat and thus minimizes variation of the data. A solid scintillant also eliminates waste disposal of liquid scintillation fluid.
The raw data from the filter mats are then automatically sent electronically to a computer for semi-automated analyses using algorithms and a suite of programs (XLFITT computer program; IDBS corporation, Emeryville, Calif.) that perform non-linear, iterative, sigmoidal-fit analyses of the raw data.

A further assay relates to Rabbit Eyes. As to the kind of experiment: Intraocular pressure reduction in rabbit eyes after topical ocular dosing.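 Note: mean IOP reduction per time point from 7-8 rabbits per group, drug-treated groups alongside vehicle-treated control groups.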 The class given is in vivo.
Assay [2] has as its system Ocular Hypertensive Monkey Eyes. As to the kind of experiment: Intraocular pressure reduction in conscious ocular hypertensive cynomolgus monkey eyes after topical ocular dosing.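 Note: mean of 8 drug-treated monkeys per time point, IOP change expressed against a vehicle-dosed control group of 5 monkeys.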 The class given is in vivo.
Setting [3] is: topical ocular dose 500 μg, 1 Hour Post Dosing.
Setting [4] is: topical ocular dose 500 μg, 2 Hours Post Dosing.
The mark [5] stands for this setting: topical ocular dose 500 μg, 3 Hours Post Dosing.
[6] abbreviates: topical ocular dose 500 μg, 4 Hours Post Dosing.
[7] abbreviates: topical ocular dose 1 mg, 1 Hour Post Dosing.
Setting [8] is: topical ocular dose 1 mg, 3 Hours Post Dosing.
Where [9] appears, read: topical ocular dose 1 mg, 6 Hours Post Dosing.
Where [10] appears, read: topical ocular dose 300 μg, 1 Hour Post Dosing.
Setting [11] is: topical ocular dose 300 μg, 3 Hours Post Dosing.
Where [12] appears, read: topical ocular dose 300 μg, 6 Hours Post Dosing.
Where [13] appears, read: topical ocular dose 300 μg, 2 Hours Post Dosing.
The mark [14] stands for this setting: topical ocular dose 300 μg, 4 Hours Post Dosing.
Where [15] appears, read: topical ocular dose 500 μg, 6 Hours Post Dosing.

Consider nine compounds from patent publication US20080096238A1, “HIGH THROUGHPUT ASSAY FOR HUMAN RHO KINASE ACTIVITY WITH ENHANCED SIGNAL-TO-NOISE RATIO” (ALCON, INC., priority 2004, published 2008).

T1 sequence (O75116 11-552): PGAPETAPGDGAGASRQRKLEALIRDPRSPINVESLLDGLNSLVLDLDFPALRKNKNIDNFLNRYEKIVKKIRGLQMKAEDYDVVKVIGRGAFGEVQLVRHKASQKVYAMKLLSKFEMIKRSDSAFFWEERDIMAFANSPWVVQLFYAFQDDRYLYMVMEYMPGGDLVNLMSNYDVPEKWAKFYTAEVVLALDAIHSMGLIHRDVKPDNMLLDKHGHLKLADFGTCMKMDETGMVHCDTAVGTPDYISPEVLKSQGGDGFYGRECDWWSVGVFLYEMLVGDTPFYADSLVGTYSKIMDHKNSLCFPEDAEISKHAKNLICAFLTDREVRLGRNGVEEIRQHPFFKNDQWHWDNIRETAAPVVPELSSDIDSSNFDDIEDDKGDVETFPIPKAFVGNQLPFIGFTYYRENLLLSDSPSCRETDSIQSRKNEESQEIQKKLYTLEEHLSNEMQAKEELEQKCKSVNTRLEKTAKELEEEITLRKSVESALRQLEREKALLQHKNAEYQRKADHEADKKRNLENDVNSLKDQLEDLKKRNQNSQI

Take `CC1CNCCN1S(=O)(=O)c1cccc2cnccc12` (stereo not drawn) [E, H-7]: the “Hill Coefficient (nH)” value in assay [1] is listed as 0.99 ± 0.13. For the same compound, the “% Max. IOP Reduction in Rabbit Eyes” value in the assay on Rabbit Eyes (setting [3]) was determined as 19%; with Rabbit Eyes (setting [4]) it was 11%; with Rabbit Eyes (setting [5]), 0%; with Rabbit Eyes (setting [6]), 6%. In addition, the “% Max. IOP Reduction in Ocular Hypertensive Monkey Eyes” value in assay [2] (setting [7]) was 31%; in assay [2] (setting [8]) it was 21%; in assay [2] (setting [9]), 12%.
As to `Cc1cncc2cccc(S(=O)(=O)N3CCCNCC3C)c12` (stereo not drawn) [A, HMN-1152], the “% Max. IOP Reduction in Rabbit Eyes” value with Rabbit Eyes (setting [3]) amounted to 34%; in the assay on Rabbit Eyes (setting [4]), 34%; in the assay with Rabbit Eyes (setting [5]), 27%; in the assay with Rabbit Eyes (setting [6]), 19%; with Rabbit Eyes (setting [7]), 29%; in the assay on Rabbit Eyes (topical ocular dose 1 mg, 2 Hours Post Dosing), 35%. The “% Max. IOP Reduction in Rabbit Eyes” value in the assay with Rabbit Eyes (setting [8]) came to 32%; in the assay on Rabbit Eyes (topical ocular dose 1 mg, 4 Hours Post Dosing), 24%. The “% Max. IOP Reduction in Ocular Hypertensive Monkey Eyes” value in assay [2] (topical ocular dose 100 μg, 1 Hour Post Dosing) is reported as 28%; in assay [2] (topical ocular dose 100 μg, 3 Hours Post Dosing), 25%; in assay [2] (topical ocular dose 100 μg, 6 Hours Post Dosing) it was 19%; in assay [2] (setting [10]), 29%; in assay [2] (setting [11]) it was 30%; in assay [2] (setting [12]) it was 21%. Besides, the “% Max. IOP Reduction in Ocular Hypertensive Monkey Eyes” value in assay [2] (setting [7]) was 42%; in assay [2] (setting [8]) it was 51%; in assay [2] (setting [9]) it was 36%.
Consider `O=S(=O)(c1cccc2c(Cl)cccc12)N1CCCNCC1` [J, ML-9], for which the “Hill Coefficient (nH)” value in assay [1] was found to be 0.9 ± 0.3. The IC50 in assay [1] stood at 12 µM. Moreover, the “% Max. IOP Reduction in Rabbit Eyes” value with Rabbit Eyes (setting [10]) was found to be 8%; with Rabbit Eyes (setting [13]) it was 23%; in the assay with Rabbit Eyes (setting [11]), 0.4%; in the assay on Rabbit Eyes (setting [14]), 6%. Besides, the “% Max. IOP Reduction in Ocular Hypertensive Monkey Eyes” value stood at 7% in assay [2] (setting [10]), 6% in assay [2] (setting [11]) and 5% in assay [2] (setting [12]).
As to `CC1CN(S(=O)(=O)c2cccc3cnccc23)CCN1` (stereo not drawn) [I, HA-135], in assay [1], the “Hill Coefficient (nH)” value was determined as 0.91 ± 0.28. Besides, the “% Max. IOP Reduction in Ocular Hypertensive Monkey Eyes” value in assay [2] (setting [3]) is on record as 19%; in assay [2] (setting [5]) it was 15%; in assay [2] (setting [15]), 1%.
Take `Cc1cncc2c1=C(S(=O)(=O)N1CCCN(C)CC1C)CCC=2` (stereo not drawn) [B]: in assay [1], the “Hill Coefficient (nH)” value is 0.6 ± 0.2 and the IC50 was found to be 0.485 ± 0.207 µM.
Take `Cc1cncc2cccc(S(=O)(=O)N3CCNC(C)C3)c12` (stereo not drawn) [F]: in assay [1], the “Hill Coefficient (nH)” value worked out at 0.94 ± 0.11. For the same compound, the “% Max. IOP Reduction in Ocular Hypertensive Monkey Eyes” value is given as 23% in assay [2] (setting [3]), 20% in assay [2] (setting [5]) and 20% in assay [2] (setting [15]).
Consider `Cc1cncc2cccc(S(=O)(=O)N3CCCN(C)C(C)C3)c12` (stereo not drawn) [H], for which the “Hill Coefficient (nH)” value in assay [1] came to 0.95 ± 0.16.
As to `O=S(=O)(c1cccc2cnccc12)N1CCCNCC1` [D, Fasudil, Fasudil], the “% Max. IOP Reduction in Rabbit Eyes” value in the assay on Rabbit Eyes (setting [10]) is 17%; in the assay with Rabbit Eyes (setting [13]) it was 29%; in the assay with Rabbit Eyes (setting [11]), 26%; in the assay with Rabbit Eyes (setting [14]) it was 20%; in the assay on Rabbit Eyes (setting [3]) it was 25%; in the assay on Rabbit Eyes (setting [4]) it was 33%. Besides, the results for the “% Max. IOP Reduction in Rabbit Eyes” value in the assay on Rabbit Eyes (setting [5]) and with Rabbit Eyes (setting [6]) were 25% and 17%, respectively. For the same compound, the “% Max. IOP Reduction in Ocular Hypertensive Monkey Eyes” value turned out to be 33% in assay [2] (setting [3]), 28% in assay [2] (setting [5]) and 16% in assay [2] (setting [15]).
With `CC(N)[C@H]1CC[C@H](C(=O)Nc2ccccc2)CC1` (stereo partly drawn) [G, Y-27632], the “% Max. IOP Reduction in Rabbit Eyes” value is given as 26% with Rabbit Eyes (topical ocular dose 2 mg, 1 Hour Post Dosing); 28% in the assay on Rabbit Eyes (topical ocular dose 2 mg, 2 Hours Post Dosing); 29% in the assay on Rabbit Eyes (topical ocular dose 2 mg, 3 Hours Post Dosing); 27% with Rabbit Eyes (topical ocular dose 2 mg, 4 Hours Post Dosing). Also, the “% Max. IOP Reduction in Ocular Hypertensive Monkey Eyes” value in assay [2] (setting [10]) was found to be 15%; in assay [2] (setting [11]) it was 14%; in assay [2] (setting [12]), 8%; in assay [2] (setting [7]), 24%; in assay [2] (setting [8]), 36%; in assay [2] (setting [9]), 32%.
